Patent US10259817B2, “Crystal (6S,9aS)-N-benzyl-8-({6-[3-(4-ethylpiperazin-1-yl)azetidin-1-yl]pyridin-2-yl}methyl)-6-(2-fluoro-4-hydroxybenzyl)-4,7-dioxo-2-(prop-2-en-1-yl)hexahydro-2H-pyrazino[2,1-c][1,2,4]triazine-1(6H)-carboxamide” (Eisai R&D Management Co., Ltd., priority 2015, dated 2019)

What was measured:
[1] = system: human chronic myologenous leukemia cell strain K562; details: day 28; Dasatinib 5 mg/kg alone, oral qd 5 days + 2-day holiday, two cycles
Text: A preparation of a human chronic myologenous leukemia cell strain K562 (which had been cultured in a RPMI-1640 liquid culture medium supplemented with 10% FBS and penicillin/streptomycin) which was so prepared with PBS (Wako Pure Chemical Industries, Ltd.; Cat#045-29795) that the density became 2×10^8 cells/mL was mixed with [sequence] (BD Biosicence, Cat#: 354234) at a mixing ratio of 1:1, thereby preparing a cell suspension having a density of 1×10^8 cells/mL. The resulting cell suspension was transplanted subcutaneously into the right flank of each of six-week-old nude mice (CAnN.Cg-Foxn1nu/CrlCrlj, female, Charles River Laboratories Japan) at a dose of 100 μL. Seven days after the transplantation, the shorter diameter and the longer diameter of a tumor were measured using an electronic digital caliper (Digimatic™ Caliper, Mitutoyo Corporation) to calculate the tumor volume in accordance with the following equation. Tumor volume (mm^3)=(longer diameter (mm))×(shorter diameter (mm))×(shorter diameter (mm))/2
The mice were grouped in such a manner that the average value of the tumor volumes in mice in a group, which were determined on the basis of the tumor volume on the first day of the administration. […]

[2] = system: Wnt signal; test: Detection of Wnt signal (TOPglow luciferase reporter, LiCl-stimulated HEK293 clone); type: cell-based; details: Homo sapiens; HEK293 pNeo-TOP clone, LiCl added, luciferase emission; read-out: IC50, concentration required for inhibiting the Wnt signal activity by 50%
Text: The plasmid pNeo-TOP was introduced into human fetus-derived renal cell strain HEK293, then a compound was selected using G418, and then a cell clone strain was established by a limiting dilution method. The cell clone strain was subjected to a Wnt signal detection test.
The cell clone strain was subcultured in a D-MEM glucose-rich culture medium (Wako Pure Chemical Industries, Ltd.) containing 10% FBS, and cells in a growth phase were used in the test. Cells were collected using trypsin-EDTA, the number of the cells was counted, and then the cells were suspended in a D-MEM glucose-rich culture medium containing 10% FBS so that the number of cells became 2×10^5 cells/mL. The cell suspension was added to a 96-well cell culture plate (Greiner Bio-One Co., Ltd., product number: 655083) in an amount of 0.1 mL/well and then cultured overnight in a 5% CO2 incubator (37° C.). After the culturing, a substance to be tested, which was dissolved in DMSO, was diluted with a D-MEM glucose-rich culture medium containing 10% of FBS and 80 mM of LiCl to produce a sample solution. The sample solution (0.1 mL) was added to each well and then cultured in a 5% CO2 incubator (37° C.) overnight. […] The plate was put on a plate mixer for several seconds, and then the emission of light from each well was measured using a EnVision™ Multilabel plate reader (PerkinElmer Co., Ltd.). […]

| Structure (SMILES) | the number of individuals in which a tumor was not observed by visual judgment/total number of administered individuals [1] | IC50 [2] |
| --- | --- | --- |
| Cc1nc(Nc2ncc(C(=O)Nc3c(C)cccc3Cl)s2)cc(N2CCN(CCO)CC2)n1 [Dasatinib] | 0/9 | – |
| C=CCN1CC(=O)N2[C@@H](Cc3ccc(O)cc3F)C(=O)N(Cc3cccc(N4CC(N5CCN(CC)CC5)C4)n3)C[C@@H]2N1C(=O)NCc1ccccc1 [Example 1, (6S,9aS)-N-benzyl-8-({6-[3-(4-ethylpiperazin-1-yl)azetidin-1-yl]pyridin-2-yl}methyl)-6-(2-fluoro-4-hydroxybenzyl)-4,7-dioxo-2-(prop-2-en-1-yl)hexahydro-2H-pyrazino[2,1-c][1,2,4]triazine-1(6H)-carboxamide] | – | 60 nM |
